These results are taken from paper PMC4609936, “Pharmacologically targeted NMDA receptor antagonism by NitroMemantine for cerebrovascular disease” (Scientific Reports, 2015).

Series [1] relates to NMDAR-mediated component of the EPSC. In words: Evoked EPSCs in hippocampal autapses, whole-cell recording. It is filed as cell-based, rat.
In the next series the test system is LTP in hippocampal CA1. The experiment in a line: LTP in hippocampal slices by field recordings. The conditions noted are these: 10 μM, high-frequency burst, rat hippocampal slices. It is filed as cell-based.
The target of series [2] is GluN1(N616R)/GluN2A channels (Homo sapiens, UniProt Q05586+Q12879, N616R). The experiment in a line: Oocyte voltage clamp, redox effect on memantine binding site mutant. It is filed as cell-based. The conditions noted are these: for effect of GluN1(N616R) mutation on inhibition of current via S-nitrosylation: 200 µM. Here is the method:
(§1) Two-electrode voltage clamp recordings at −60 or −70 mV were made on oocytes in frog Ringer’s solution two to seven days after injection of NMDAR subunits. Recordings were performed with an Oocyte Clamp OC-725b amplifier (Warner Instrument Corporation, Hamden, CT) using MacLab version 3.5 software (AD Instruments, Milford, MA) at room temperature. […] Both electrodes were filled with 3 M KCl. A solution containing 90 mM NaCl, 1 mM KCl, 10 mM HEPES, 1.5 mM BaCl2, and 10–100 μM glycine, pH 7.5 was used to continuously superfuse the oocytes. Barium, rather than calcium, was used as the divalent cation in order to minimize secondary activation of Ca^2+-activated Cl^− current. In some experiments, 1.2 mM MgCl2 was added to the bath solution. Drugs were dissolved in frog Ringer’s solution and applied by superfusion at a 2 ml/min flow rate. In some cases, to achieve relatively rapid solution exchange, we used an array of pipettes similar to the “sewer pipe” system used in patch-clamp recording. Perfusion artifacts were digitally removed from the traces.
Mutant NMDAR subunits were prepared using the Chameleon^TM double-stranded site-directed mutagenesis kit (Stratagene) according to the manufacturer’s instructions. The entire coding region was sequenced to verify the mutation.

In series [3] the target is recombinant GluN1/GluN2A receptors (Homo sapiens, UniProt Q05586+Q12879). The experiment in a line: Two-electrode voltage clamp of oocytes, channel block of NMDA-induced current. The conditions noted are these: for steady-state channel block of NMDA current: 10 μM (equimolar), Vh −70 mV; for IC50: steady-state, short-term drug addition, holding potential −70 mV, nominal absence of extracellular Mg2+, read-out: IC50 of inhibiting NMDA-induced current. It is filed as cell-based. Here is the method: […] Recordings were performed with an Oocyte Clamp OC-725b amplifier (Warner Instrument Corporation, Hamden, CT) using MacLab version 3.5 software (AD Instruments, Milford, MA) at room temperature. […] Both electrodes were filled with 3 M KCl. A solution containing 90 mM NaCl, 1 mM KCl, 10 mM HEPES, 1.5 mM BaCl2, and 10–100 μM glycine, pH 7.5 was used to continuously superfuse the oocytes. Barium, rather than calcium, was used as the divalent cation in order to minimize secondary activation of Ca^2+-activated Cl^− current. In some experiments, 1.2 mM MgCl2 was added to the bath solution. Drugs were dissolved in frog Ringer’s solution and applied by superfusion at a 2 ml/min flow rate. In some cases, to achieve relatively rapid solution exchange, we used an array of pipettes similar to the “sewer pipe” system used in patch-clamp recording. Perfusion artifacts were digitally removed from the traces.

The subject of series [4] is spontaneously hypertensive rats (SHR). The experiment in a line: Morris water maze. It is filed as in vivo, rat. The conditions noted are these: neuroprotective doses: 65.8 μmol/kg loading i.p., 3.29 μmol/kg every 12 h. Here is the method:
Adult male spontaneously hypertensive rats (SHR) were treated with either PBS or NitroMemantine (65.8 μmol/kg loading dose, i.p., followed by a 3.29 μmol/kg maintenance dose every 12 h). Each group was comprised of five rats (n = 5). Treatment for both groups commenced 48 h prior to the first day of testing. Both the treatment and water-maze testing were conducted in a blinded fashion. The water maze consisted of a circular pool 150 cm in diameter and 85 cm deep. The pool was filled to cover a moveable platform, black in color, by 1 cm of water. The water was made opaque via the addition of black paint and maintained at room temperature (20–23 °C) for the duration of the five days of testing. A white pool with black water allowed the video camera to successfully track the white rats with maximum contrast. On day 1, the rats were placed in the pool with no platform for 60 s of acclimation. Days 2 through 5 were used for testing. Starting on day 2 and continuing to day 5, rats were trained for 24 total trials (six trials/day) to locate and reach the submerged platform. The platform was kept in the same location for all trials in each session (day), but changed from session to session in a pre-determined order, yielding four unique locations in all. In addition, there were four possible release locations (the four cardinal compass directions at the pool’s perimeter). […]

For series [5] the test system is unchanged. The experiment in a line: tMCAO/R focal cerebral ischemia, infarct size by TTC staining. It is filed as in vivo, rat. Conditions: for histological protection (infarct size) at equimolar dose: MFD of NitroMemantine (65.8 μmol/kg loading, 3.29 μmol/kg maintenance); for histological protection (infarct, TTC staining): loading i.p. 2-h post occlusion: memantine 90.3 μmol/kg, NitroMemantine 65.8 μmol/kg, maintenance 12 h later, sacrificed at 24 h. The protocol:
Because of their known propensity to stroke, similar to human patients with hypertension, we used spontaneous hypertensive rats (SHR, Harlan) to induce tMCAO/R with the intraluminal suture method. Male 200–300 g SHR were anesthetized with 3% isoflurane in 30% oxygen/70% nitrous oxide using an anesthetic vaporizer and flowmeter. Body temperature was maintained at 37 °C with a homeothermic temperature system. A laser Doppler monitor was used to monitor relative cerebral blood flow (rCBF) during the surgical procedure and recovery. rCBF measurements were made immediately after anesthesia, after occlusion of the MCA, just before, and immediately after withdrawal of the suture to initiate reperfusion. To initiate a stroke, a midline incision was made to expose the right common carotid, external carotid, and internal carotid arteries. The occipital artery branches of the external carotid artery were isolated and along with the terminal lingual and maxillary artery branches coagulated with an electrocautery unit. The internal carotid artery was isolated and carefully separated from the adjacent vagus nerve. The pterygopalatine artery was ligated close to its origin, two loosely tied sutures placed around the external carotid artery stump, and a microaneurysm clip applied to the external carotid artery near its bifurcation with the internal carotid artery. A small puncture opening was made in the external carotid artery, a monofilament (intraluminal suture) inserted through the opening, and the sutures tightened around the lumen containing the filament. The microaneurysm clip was removed from the external carotid artery and the monofilament gently advanced from the lumen of the external carotid artery into the internal carotid artery for a distance of ~19 to 20 mm beyond the bifurcation of the common carotid artery until the blood flow dropped (≥80% reduction by rCBF measurement). The suture around the external carotid artery stump was tightened to prevent bleeding. After 2 h, sutures were removed, the filament withdrawn and the incision sutured removed, with rCBF recovering at least 75% at reperfusion. Just prior to reperfusion, rats were administered memantine, NitroMemantine, or memantine-OH via i.p. injection in saline vehicle or an equivalent volume of vehicle alone. […] Maintenance doses (4.63 μmol/kg of memantine and 3.29 μmol/kg of NitroMemantine, equivalent to 1 mg/kg or each) were administered 12 h after the loading dose. […] In subsequent experiments, equimolar memantine, NitroMemantine YQW-036, or memantine-OH was used using the lower NitroMemantine dose described above. The rodents were sacrificed 24-h post occlusion, and the size of brain infarct was evaluated histologically by 2,3,5-triphenyl-2H-tetrazolium chloride (TTC) staining.

The subject of the next series is developing cerebrocortex. In words: Cerebrocortical apoptosis by TUNEL in neonatal rats. It is filed as in vivo. Conditions: P7 rat pups, loading dose, 24 h later.
The target of series [6] is NMDA-evoked currents in primary rat cortical neurons (Rattus norvegicus, UniProt P35439). The experiment in a line: Whole-cell patch clamp of NMDA-evoked currents in primary rat cortical neurons. It is filed as cell-based. The conditions noted are these: 5 μM, −75 mV and +30 mV. For orientation: In patch-clamp work, channel activity is measured electrically.
The test system of series [7] is spontaneously hypertensive rats (SHR). The experiment in a line: Physiological parameters during stroke. It is filed as in vivo, rat. Conditions: loading dose, n = 18 SHR.
Another series can be described thus: Aqueous solubility. It is filed as physicochemical.
For the next series, the system named is GluN1/GluN2A NMDARs. The experiment in a line: Oocyte voltage clamp, redox (S-nitrosylation) mediated inhibition of NMDA-evoked current. It is filed as cell-based. Here is the method: as §1
Another series relates to SNO-GluN1 and SNO-Drp1. The experiment in a line: Biotin switch assay of S-nitrosylated proteins in brain after stroke. It is filed as in vivo, rat. The conditions noted are these: SHR, loading dose 2-h post occlusion, sacrificed 90 min thereafter.
In series [8] the test system is spontaneously hypertensive rats (SHR). The experiment in a line: Neurological/behavioral score after tMCAO/R. It is filed as in vivo, rat. Conditions: same doses as histology (memantine 90.3, NitroMemantine 65.8 μmol/kg loading), 24-h post stroke. An excerpt: Each adult animal underwent a neurologic evaluation[51] immediately after filament removal and again 1 day after reperfusion (prior to sacrifice). Each animal was assigned an objective behavioral score of 0–4: 0 representing no observable neurological deficit; 1 failure to extend the left forepaw; 2 circling to the left; 3 falling to the left; 4 cannot walk spontaneously. The scores obtained 24-h post stroke were averaged for each time point of each treatment group and presented as the neurological score.

Series [9] concerns NMDAR-operated ion channel. The conditions noted are these: cited from earlier work.
Details of series [10]: method as in PMID 19915593. The conditions noted are these: memantine 90.3 μmol/kg loading, 4.63 μmol/kg maintenance; cited from earlier work.

For orientation: IC50 means the concentration that inhibits the measured activity by half.

Like-named read-outs stand apart in the source and are kept apart here.

recombinant GluN1/GluN2A receptors, sequence (Q12879 23-1464, other chains not shown): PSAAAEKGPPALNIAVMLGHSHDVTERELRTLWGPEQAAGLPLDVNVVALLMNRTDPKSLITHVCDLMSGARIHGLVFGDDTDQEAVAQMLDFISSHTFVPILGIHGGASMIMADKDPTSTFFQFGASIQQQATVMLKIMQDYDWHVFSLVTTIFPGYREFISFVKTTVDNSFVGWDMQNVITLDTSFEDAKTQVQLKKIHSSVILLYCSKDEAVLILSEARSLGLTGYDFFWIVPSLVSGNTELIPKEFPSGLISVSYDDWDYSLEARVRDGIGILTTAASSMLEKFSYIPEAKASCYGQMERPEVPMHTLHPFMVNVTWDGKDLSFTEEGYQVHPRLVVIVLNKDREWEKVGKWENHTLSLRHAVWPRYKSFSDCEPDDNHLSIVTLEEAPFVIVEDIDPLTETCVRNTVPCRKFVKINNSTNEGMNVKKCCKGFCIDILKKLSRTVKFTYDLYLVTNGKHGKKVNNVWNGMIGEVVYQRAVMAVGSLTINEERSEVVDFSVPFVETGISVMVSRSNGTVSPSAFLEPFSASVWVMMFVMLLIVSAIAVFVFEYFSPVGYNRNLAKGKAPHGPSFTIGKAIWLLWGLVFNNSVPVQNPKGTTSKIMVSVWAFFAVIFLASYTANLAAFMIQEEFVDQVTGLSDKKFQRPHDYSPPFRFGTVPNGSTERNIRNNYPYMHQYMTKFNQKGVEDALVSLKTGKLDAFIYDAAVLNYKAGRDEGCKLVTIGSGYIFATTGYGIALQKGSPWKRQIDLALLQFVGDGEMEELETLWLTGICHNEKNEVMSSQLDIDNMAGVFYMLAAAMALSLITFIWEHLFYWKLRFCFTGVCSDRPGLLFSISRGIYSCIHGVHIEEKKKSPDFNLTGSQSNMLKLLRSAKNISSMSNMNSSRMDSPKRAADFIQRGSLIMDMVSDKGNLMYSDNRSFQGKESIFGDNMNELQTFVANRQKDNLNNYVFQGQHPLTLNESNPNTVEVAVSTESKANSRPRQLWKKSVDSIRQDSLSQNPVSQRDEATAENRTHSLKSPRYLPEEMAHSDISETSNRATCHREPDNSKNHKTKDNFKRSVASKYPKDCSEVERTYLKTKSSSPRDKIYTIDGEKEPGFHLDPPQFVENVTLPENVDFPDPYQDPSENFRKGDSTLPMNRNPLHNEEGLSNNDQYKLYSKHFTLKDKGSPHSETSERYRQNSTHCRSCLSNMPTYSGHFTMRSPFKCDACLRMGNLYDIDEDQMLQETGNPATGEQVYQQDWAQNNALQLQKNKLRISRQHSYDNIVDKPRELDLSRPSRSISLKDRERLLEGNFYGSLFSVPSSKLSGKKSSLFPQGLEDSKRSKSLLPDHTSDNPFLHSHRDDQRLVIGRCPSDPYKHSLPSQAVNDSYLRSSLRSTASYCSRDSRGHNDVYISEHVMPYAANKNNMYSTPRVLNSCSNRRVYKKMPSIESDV
GluN1(N616R)/GluN2A channels, sequence (Q12879 23-1464, other chains not shown): as above
Description for SNO-GluN1 and SNO-Drp1: Analysis of S-nitrosylation of NMDA receptors in rat brain was performed by the biotin switch assay, as previously described[48][49]. Free thiols in tissue lysates were blocked with methyl-methanethiosulfonate. Proteins were then precipitated with acetone and resuspended in HEN buffer (250 mM HEPES, pH 7.4, 1 mM EDTA, 0.1 mM neocuproine) plus 1% sodium dodecyl sulfate. Ascorbate was used to selectively reduce nitrosothiols in order to reform free thiol groups, which were subsequently biotinylated using 1 mM biotin-HPDP (Pierce, Rockford, IL). Parallel reactions were performed without ascorbate as a control to ensure specificity of the biotinylated bands. Biotinylated proteins were captured on streptavidin-agarose beads and analyzed by immunoblotting.

Consider `N[C@H](CCCP(=O)(O)O)C(=O)O` [D-AP5, (2R)-amino-5-phosphonopentanoate], for which the “block of NMDAR component of the EPSC” value in series [1] (50 μM, control) is given as “completely blocked”.
In the case of `C[C@]12N[C@H](Cc3ccccc31)c1ccccc12` [MK-801, reference compound], the “effect on LTP induction” value in the series with LTP in hippocampal CA1 was “completely inhibited LTP induction”.
Turning to `N[C@@H](CSN=O)C(=O)O` [SNOC, S-nitrosocysteine, reference compound], in [2], the “effect of GluN1(N616R) mutation on inhibition of current via S-nitrosylation” value is reported as “did not affect inhibition”.
Regarding `CC12CC3(C)CC(N)(C1)CC(O[N+](=O)[O-])(C2)C3` [YQW-035], in series [3], the “steady-state channel block of NMDA current” value (“steady-state channel block” below) is recorded as “less channel block than memantine but more than amantadine” and the IC50 was 6300 nM. The “effect of GluN1(N616R) mutation on inhibition of current via S-nitrosylation” value in series [2] was “eliminated inhibition”.
On to `CCC12CC3(N)CC(CC)(C1)CC(O[N+](=O)[O-])(C3)C2` [YQW-036], for which the “Morris water maze performance” value in series [4] is “not affected”. For the same compound, in series [5], the “histological protection (infarct size) at equimolar dose” value is “significant benefit” and the “histological protection (infarct, TTC staining)” value is “protected to a greater extent than memantine”. In [5] (listed as NitroMemantine), the “histological protection (infarct, TTC staining)” value is “offer histological protection”. In [3], the “steady-state channel block” value was “approximately the same degree as memantine” and the IC50 worked out at 2400 nM. Further, the “inhibition of NMDA-evoked current in the presence of extracellular Mg2+” value in series [3] (10 µM, 1.2 mM Mg2+, NMDA 100 µM, holding potential −40 mV) is “inhibited”. The “cerebrocortical neuronal apoptosis (TUNEL)” value with developing cerebrocortex is “do not cause”. In addition, the “redox-mediated activity on GluN1(N616R) mutant” value in series [2] (100 μM) is on record as “abrogated”. Further, in series [1] (10 μM), the “change of EPSC blockade with repeated electrical stimulation (pulses 1–10)” value is “did not significantly increase”. Further, the “block of NMDAR-mediated component of the EPSC” value in series [1] (10 μM, 20 μM CNQX present) is listed as “blocked to a lesser extent”. Besides, the “blockade of NMDA-evoked current, voltage dependence” value in [6] was “approximately equivalent degree of blockade at both –75 mV and less blockade at +30 mV”. The “physiological parameters (temperatures, blood pressure, metabolic panel)” value in series [7] is on record as “not significantly affected”. In addition, the “effect on LTP induction” value with LTP in hippocampal CA1 is reported as “did not inhibit LTP”. Moreover, the aqueous solubility result in “Aqueous solubility” is given as “lower solubility in aqueous solution”. The “inhibition of NMDA-evoked current under conditions used to observe S-nitrosylation” value with GluN1/GluN2A NMDARs (100 μM, Vh −60 mV) is “inhibited NMDA-evoked current”. For the same compound, the “prolonged inhibitory effect after prior MTSEA or mutation of redox-active cysteines” value in the series on GluN1/GluN2A NMDARs (prior addition of MTSEA or mutation of redox-active cysteines in the NMDAR) is listed as “largely abrogated”. For the same compound, in the series with SNO-GluN1 and SNO-Drp1, the “S-nitrosylation of Drp1 (SNO-Drp1)” value is listed as “not significantly affected” and the “S-nitrosylation of the GluN1 subunit (SNO-GluN1), ipsilateral to stroke” value was “significant increase”. The neurological/behavioral score entry in series [8] was “showed a protective effect”.
Regarding `CCCC12CC3(N)CC(CCC)(C1)CC(O[N+](=O)[O-])(C3)C2` [YQW-037], the aqueous solubility entry in “Aqueous solubility” was “cannot be dissolved in aqueous solutions”.
Regarding `NC12CC3CC(CC(C3)C1)C2` [amantadine, reference compound], the “steady-state channel block” value in series [3] is listed as “inhibited less NMDA current at steady state than equimolar memantine”.
Turning to `CC12CC3CC(C)(C1)CC(N)(C3)C2` [memantine], in series [5], the “histological protection (infarct size) at equimolar dose” value is “no significant protection” and the “histological protection (infarct, TTC staining)” value is on record as “offer histological protection”. For the same compound, in the series with developing cerebrocortex, the “cerebrocortical neuronal apoptosis (TUNEL)” value is on record as “do not cause”. Further, in series [1], the “block of NMDAR-mediated component of the EPSC” value is reported as “blocks neurotransmission to a greater degree than NitroMemantine” and the “change of EPSC blockade with repeated electrical stimulation (pulses 1–10)” value is reported as “use-dependent”. In addition, the IC50 in [9] was 500 to 1000 nM. The “blockade of NMDA-evoked current, voltage dependence” value in series [6] is “approximately equivalent degree of blockade at both –75 mV and less blockade at +30 mV”. Besides, the “physiological parameters (temperatures, blood pressure, metabolic panel)” value in series [7] is “not significantly affected”. Also, in series [10], the “concentration at the mouth of the NMDAR-associated ion channel” value was 5 to 10 µM.
